Assays:
HT29 = experiment: NCI screening panel (SRB); format: cell-based; details: Homo sapiens, HT-29, HT29 (Colon), 48 h; for CC50: read-out: LC50 (the source's name)
MDA-MB-231/ATCC = experiment: NCI screening panel (SRB); format: cell-based; details: Homo sapiens, MDA-MB-231/ATCC (Breast), 48 h; for CC50: read-out: LC50 (the source's name)
EGFR (G719S) = EGFR (G719S) (Homo sapiens, UniProt P00533, G719S); experiment: Kinase assays, selectivity panel (qPCR); details: read-out: % Control @ 300 nM
[1] = test system: EGFR (L747-T751del, Sins); experiment: Kinase assays, selectivity panel (qPCR)
SNB-75 = experiment: NCI screening panel (SRB); format: cell-based; details: Homo sapiens, SNB-75 (CNS), 48 h; for CC50: read-out: LC50 (the source's name)
EGFR (E746-A750del) = EGFR (E746-A750del) (Homo sapiens, UniProt P00533, DEL746-750); experiment: Kinase assays, selectivity panel (qPCR); details: read-out: % Control @ 300 nM
OVCAR-4 = experiment: NCI screening panel (SRB); format: cell-based; details: Homo sapiens, OVCAR-4 (Ovarian), 48 h; for CC50: read-out: LC50 (the source's name)
EPHA6 = target: T1, EPHA6 (Homo sapiens, UniProt Q9UF33); experiment: Binding to EPHA (kinase competition binding, qPCR); parameters: T7 phage fusion (kinase-tagged phage) or DNA tag for qPCR; made in house; host or cells: E. coli BL21-derived host (T7 phage) or HEK-293; details: 300 nM, read-out: % Control @ 300 nM
T1 sequence (Q9UF33 23-1036): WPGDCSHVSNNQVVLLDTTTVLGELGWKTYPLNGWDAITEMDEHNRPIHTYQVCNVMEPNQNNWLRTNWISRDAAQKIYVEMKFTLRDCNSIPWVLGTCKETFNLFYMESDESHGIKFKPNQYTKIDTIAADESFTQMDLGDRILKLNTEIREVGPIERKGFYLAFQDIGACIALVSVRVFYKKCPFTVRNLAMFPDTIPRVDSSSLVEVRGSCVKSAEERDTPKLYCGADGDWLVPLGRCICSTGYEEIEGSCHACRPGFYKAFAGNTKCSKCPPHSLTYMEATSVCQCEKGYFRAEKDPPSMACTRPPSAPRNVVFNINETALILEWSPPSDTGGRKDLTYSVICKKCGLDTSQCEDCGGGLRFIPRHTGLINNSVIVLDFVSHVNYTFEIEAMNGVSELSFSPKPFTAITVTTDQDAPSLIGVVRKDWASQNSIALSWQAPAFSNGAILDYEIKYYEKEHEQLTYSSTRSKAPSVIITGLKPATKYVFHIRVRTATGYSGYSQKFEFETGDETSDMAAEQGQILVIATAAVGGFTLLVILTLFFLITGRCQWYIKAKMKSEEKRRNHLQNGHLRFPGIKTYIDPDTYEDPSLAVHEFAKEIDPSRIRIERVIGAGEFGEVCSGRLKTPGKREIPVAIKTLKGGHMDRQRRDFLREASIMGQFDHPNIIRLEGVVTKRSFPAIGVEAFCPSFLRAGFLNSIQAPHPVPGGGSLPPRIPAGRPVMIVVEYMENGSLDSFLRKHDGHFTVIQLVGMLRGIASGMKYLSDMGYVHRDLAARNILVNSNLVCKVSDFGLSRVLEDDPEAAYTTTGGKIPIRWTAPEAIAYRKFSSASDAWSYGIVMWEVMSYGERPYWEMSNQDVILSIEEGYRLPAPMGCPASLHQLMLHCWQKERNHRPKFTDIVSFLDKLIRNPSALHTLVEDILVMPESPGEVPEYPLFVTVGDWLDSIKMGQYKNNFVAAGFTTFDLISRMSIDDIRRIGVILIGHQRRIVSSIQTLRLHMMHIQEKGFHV
Description: The lysates were centrifuged and filtered to remove cell debris. […] All reactions were performed in polystyrene 96-well plates in a final volume of 0.135 ml.

SF-295 = experiment: NCI screening panel (SRB); format: cell-based; details: Homo sapiens, SF-295 (CNS), 48 h; for CC50: read-out: LC50 (the source's name)
OVCAR-5 = experiment: NCI screening panel (SRB); format: cell-based; details: Homo sapiens, OVCAR-5 (Ovarian), 48 h; for CC50: read-out: LC50 (the source's name)
NCI-H522 = experiment: NCI screening panel (SRB); format: cell-based; details: Homo sapiens, NCI-H522 (NSCLC), 48 h; for CC50: read-out: LC50 (the source's name)
CAKI-1 = experiment: NCI screening panel (SRB); format: cell-based; details: Homo sapiens, CAKI-1 (Renal), 48 h; for CC50: read-out: LC50 (the source's name)

Chain of EGFR (E746-A750del) (P00533 with tags, fused parts or gaps DEL746-750): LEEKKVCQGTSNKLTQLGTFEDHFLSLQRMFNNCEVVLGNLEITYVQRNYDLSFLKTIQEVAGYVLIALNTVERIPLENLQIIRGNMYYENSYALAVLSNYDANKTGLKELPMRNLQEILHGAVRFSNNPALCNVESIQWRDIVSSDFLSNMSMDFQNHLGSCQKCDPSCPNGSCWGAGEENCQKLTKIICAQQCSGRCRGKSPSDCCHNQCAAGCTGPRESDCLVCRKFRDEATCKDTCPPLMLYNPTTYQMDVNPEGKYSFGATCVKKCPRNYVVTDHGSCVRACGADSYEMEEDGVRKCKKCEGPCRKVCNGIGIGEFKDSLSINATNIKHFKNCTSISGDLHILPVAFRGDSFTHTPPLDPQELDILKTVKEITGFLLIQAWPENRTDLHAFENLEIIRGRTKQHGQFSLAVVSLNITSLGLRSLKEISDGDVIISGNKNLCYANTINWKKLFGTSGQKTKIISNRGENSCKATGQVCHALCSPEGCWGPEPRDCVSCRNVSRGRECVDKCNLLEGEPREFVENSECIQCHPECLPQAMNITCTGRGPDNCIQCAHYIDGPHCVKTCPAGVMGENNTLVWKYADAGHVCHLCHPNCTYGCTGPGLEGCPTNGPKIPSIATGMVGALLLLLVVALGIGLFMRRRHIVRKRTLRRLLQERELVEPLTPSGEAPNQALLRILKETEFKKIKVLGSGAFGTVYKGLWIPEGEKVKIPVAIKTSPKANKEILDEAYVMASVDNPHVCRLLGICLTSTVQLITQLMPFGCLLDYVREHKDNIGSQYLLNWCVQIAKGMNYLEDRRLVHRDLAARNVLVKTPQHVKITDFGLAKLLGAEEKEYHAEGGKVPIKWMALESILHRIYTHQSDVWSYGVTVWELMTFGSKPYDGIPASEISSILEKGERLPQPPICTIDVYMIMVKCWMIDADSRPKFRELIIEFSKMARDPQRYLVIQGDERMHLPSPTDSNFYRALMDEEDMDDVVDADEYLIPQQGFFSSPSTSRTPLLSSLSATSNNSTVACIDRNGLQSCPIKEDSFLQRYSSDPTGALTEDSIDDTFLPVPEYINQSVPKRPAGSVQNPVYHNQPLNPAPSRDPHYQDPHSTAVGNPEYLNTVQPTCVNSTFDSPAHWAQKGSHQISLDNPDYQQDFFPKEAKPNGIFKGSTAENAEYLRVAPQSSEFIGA
Chain of EGFR (G719S) (P00533 25-1210 G719S): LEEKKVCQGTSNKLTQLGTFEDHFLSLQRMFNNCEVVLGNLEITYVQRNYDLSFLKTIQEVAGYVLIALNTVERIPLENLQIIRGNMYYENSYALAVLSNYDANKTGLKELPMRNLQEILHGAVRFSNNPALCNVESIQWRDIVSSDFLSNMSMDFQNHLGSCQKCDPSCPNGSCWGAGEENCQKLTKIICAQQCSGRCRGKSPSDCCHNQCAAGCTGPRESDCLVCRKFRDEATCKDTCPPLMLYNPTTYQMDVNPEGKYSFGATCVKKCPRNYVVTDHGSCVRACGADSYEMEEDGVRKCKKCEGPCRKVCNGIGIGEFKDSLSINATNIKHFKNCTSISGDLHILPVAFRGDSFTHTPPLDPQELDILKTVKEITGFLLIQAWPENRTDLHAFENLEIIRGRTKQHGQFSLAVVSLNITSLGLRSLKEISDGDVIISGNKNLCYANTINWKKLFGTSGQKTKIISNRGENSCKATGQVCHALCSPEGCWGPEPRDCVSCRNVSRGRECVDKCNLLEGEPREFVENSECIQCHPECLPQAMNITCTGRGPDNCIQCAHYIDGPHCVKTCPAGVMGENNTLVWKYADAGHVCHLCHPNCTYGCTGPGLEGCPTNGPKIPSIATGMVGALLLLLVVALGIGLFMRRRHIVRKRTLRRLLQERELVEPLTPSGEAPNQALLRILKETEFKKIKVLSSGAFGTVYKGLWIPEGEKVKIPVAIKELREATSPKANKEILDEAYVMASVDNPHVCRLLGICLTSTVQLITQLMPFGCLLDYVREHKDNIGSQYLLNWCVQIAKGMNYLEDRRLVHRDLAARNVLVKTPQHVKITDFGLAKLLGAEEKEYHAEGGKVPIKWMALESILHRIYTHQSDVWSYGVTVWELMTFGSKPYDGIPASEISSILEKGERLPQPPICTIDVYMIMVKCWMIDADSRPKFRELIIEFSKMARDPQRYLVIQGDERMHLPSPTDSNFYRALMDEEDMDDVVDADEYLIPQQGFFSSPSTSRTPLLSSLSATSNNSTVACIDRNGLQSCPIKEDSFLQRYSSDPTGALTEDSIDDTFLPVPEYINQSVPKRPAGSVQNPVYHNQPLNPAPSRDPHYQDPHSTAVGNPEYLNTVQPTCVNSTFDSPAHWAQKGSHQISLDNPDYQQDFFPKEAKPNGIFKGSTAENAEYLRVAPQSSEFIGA

Compound | GI50 (HT29) [µM] | CC50 (HT29) [µM] | GI50 (MDA-MB-231/ATCC) [µM] | CC50 (MDA-MB-231/ATCC) [µM] | remaining activity at 0.3 µM (EGFR (G719S)) [%] | % Control @ 300 nM [1] [%] | GI50 (SNB-75) [µM] | CC50 (SNB-75) [µM] | remaining activity at 0.3 µM (EGFR (E746-A750del)) [%] | GI50 (OVCAR-4) [µM] | CC50 (OVCAR-4) [µM] | remaining binding at 0.3 µM (EPHA6) [%] | GI50 (SF-295) [µM] | CC50 (SF-295) [µM] | GI50 (OVCAR-5) [µM] | CC50 (OVCAR-5) [µM] | GI50 (NCI-H522) [µM] | CC50 (NCI-H522) [µM] | GI50 (CAKI-1) [µM] | CC50 (CAKI-1) [µM]
CN(C)C/C=C/C(=O)Nc1cc2c(Nc3ccc(F)c(Cl)c3F)ncnc2cc1OCCOC(F)F.O=C(O)/C=C\C(=O)O.O=C(O)/C=C\C(=O)O [Example I-9-MA, (E)-N-[4-(3-chloro-2,4-difluoro-anilino)-7-[2-(difluoromethoxy)ethoxy]quinazolin-6-yl]-4-(dimethylamino)but-2-enamide di-maleic acid salt] | 0.383 | 62.6 | 0.391 | 28.8 | 0.15 | 8.6 | 0.129 | 23.6 | 3.6 | 0.999 | 32.4 | 3.5 | 2.05 | 33 | 0.141 | 47.9 | < 0.01 | 9.17 | < 0.01 | 3.76
O=C(/C=C/CN1CCCCC1)Nc1cc2c(Nc3ccc(F)c(Cl)c3F)ncnc2cc1OCCOC(F)F.O=C(O)/C=C\C(=O)O.O=C(O)/C=C\C(=O)O [Example I-10-MA, (E)-N-[4-(3-chloro-2,4-difluoro-anilino)-7-[2-(difluoromethoxy)ethoxy]quinazolin-6-yl]-4-(1-piperidyl)but-2-enamide di-maleic acid salt] | 1.14 | 51.4 | 1.15 | 17.6 | 0 | 0 | 0.274 | 31 | 2.7 | 1.31 | 59.9 | 3.9 | 1.91 | 16 | 0.776 | 67.1 | 0.0559 | 7.8 | 0.0229 | 6.53
